pIC50: −log10 of the molar value.

What all share (type): cell-based
Experiment [1] addresses T1, EGFR exon 20 SVD Ins D770_N771 (Homo sapiens, UniProt P00533, INS770SVD).
T1 construct: expressed in transfected cells; host or cells: Ba/F3 (murine pro-B cells), retroviral transduction, puromycin selection, IL3 withdrawal
The experiment can be described thus: Ba/F3 cell viability (CellTiter-Glo), EGFR exon 20 SVD insertion. Particulars: Ba/F3 cells expressing EGFR exon 20 SVD Ins D770_N771, 72 hours, read-out: BaF3 SVD IC50. The text has this:
(§1) Cell lines are generated by transducing Ba/F3 cells with retroviruses containing vectors with EGFR WT, EGFR exon 20 NPG Ins D770_N771, EGFR exon 20 ASV Ins V769_D770, EGFR exon 20 SVD Ins D770_N771, or EGFR exon 20 FQEA Ins A763_V764 genes and a puromycin selection marker. Transduced cells are selected with puromycin for 7 days and are then be transferred into culture media without Interleukin 3 (IL3). EGFR WT cells are maintained with supplemental EGF. Surviving cells are confirmed to express EGFR by Western blot and maintained as a pool. The IC50 data are included in Table 6.
(§2) • 1.1 Cells are harvested from flask into cell culture medium and the cell number counted. • 1.2 Cells are diluted with culture medium to the desired density and […] of cell suspension is added into each well of 384-well cell culture plate and the seeding density is 600 cells/well.
(§3) • 2.1 Test compounds are dissolved to 10 mM in a DMSO stock solution. […]
(§4) • 3.1 Plates are removed from incubators and equilibrated at room temperature for 15 minutes. • 3.2 Thaw the CellTiter Glo reagents and allow to equilibrate to room temperature before the experiment. • 3.3 Add 40 μL of CellTiter-Glo reagent into each well (at 1:1 to culture medium). Then place the plates at room temperature for 30 min followed by reading on EnVision.
(§5) • 4.1 Inhibition activity is calculated following the formula below: […]
Background: Cellular ATP, detected with luciferase, serves as a proxy for viable cell number.

The next experiment addresses T2, EGFR WT (Homo sapiens, UniProt P00533).
T2 construct: expressed in transfected cells; host or cells: Ba/F3 (murine pro-B cells), retroviral transduction; maintained with supplemental EGF
Nature of the experiment: Ba/F3 cell viability (CellTiter-Glo), EGFR WT. The following applies: Ba/F3 cells expressing EGFR WT, supplemental EGF, 72 hours, read-out: BaF3 WT IC50.
From the text: as §1, §2, §3, §4, §5

The target of experiment [2] is EGFR phosphorylation (pEGFR) in CUTO14 cells (Homo sapiens, UniProt P00533, INS769ASV). Nature of the experiment: EGFR phosphorylation (pEGFR) AlphaLISA in CUTO14 cells. The following applies: 2 hours. From the text: EGFR mutant Ba/F3 cells were generated by transduction with retrovirus containing vectors expressing EGFR exon 20 NPG Ins D770_N771, EGFR exon 20 ASV Ins V769_D770, or EGFR exon 20 SVD Ins D770_N771 genes along with a puromycin selection marker. Transduced cells are selected with puromycin for 7 days and are then be transferred into culture media without Interleukin 3 (IL3). Surviving cells are confirmed to express EGFR by Western blot and maintained as a pool. CUTO14 cells were obtained from Dr. Robert C. Doebele at the University of Colorado. The IC50 data are included in Table 6.
Sequence of EGFR phosphorylation (pEGFR) in CUTO14 cells (P00533 with tags, fused parts or gaps INS769ASV): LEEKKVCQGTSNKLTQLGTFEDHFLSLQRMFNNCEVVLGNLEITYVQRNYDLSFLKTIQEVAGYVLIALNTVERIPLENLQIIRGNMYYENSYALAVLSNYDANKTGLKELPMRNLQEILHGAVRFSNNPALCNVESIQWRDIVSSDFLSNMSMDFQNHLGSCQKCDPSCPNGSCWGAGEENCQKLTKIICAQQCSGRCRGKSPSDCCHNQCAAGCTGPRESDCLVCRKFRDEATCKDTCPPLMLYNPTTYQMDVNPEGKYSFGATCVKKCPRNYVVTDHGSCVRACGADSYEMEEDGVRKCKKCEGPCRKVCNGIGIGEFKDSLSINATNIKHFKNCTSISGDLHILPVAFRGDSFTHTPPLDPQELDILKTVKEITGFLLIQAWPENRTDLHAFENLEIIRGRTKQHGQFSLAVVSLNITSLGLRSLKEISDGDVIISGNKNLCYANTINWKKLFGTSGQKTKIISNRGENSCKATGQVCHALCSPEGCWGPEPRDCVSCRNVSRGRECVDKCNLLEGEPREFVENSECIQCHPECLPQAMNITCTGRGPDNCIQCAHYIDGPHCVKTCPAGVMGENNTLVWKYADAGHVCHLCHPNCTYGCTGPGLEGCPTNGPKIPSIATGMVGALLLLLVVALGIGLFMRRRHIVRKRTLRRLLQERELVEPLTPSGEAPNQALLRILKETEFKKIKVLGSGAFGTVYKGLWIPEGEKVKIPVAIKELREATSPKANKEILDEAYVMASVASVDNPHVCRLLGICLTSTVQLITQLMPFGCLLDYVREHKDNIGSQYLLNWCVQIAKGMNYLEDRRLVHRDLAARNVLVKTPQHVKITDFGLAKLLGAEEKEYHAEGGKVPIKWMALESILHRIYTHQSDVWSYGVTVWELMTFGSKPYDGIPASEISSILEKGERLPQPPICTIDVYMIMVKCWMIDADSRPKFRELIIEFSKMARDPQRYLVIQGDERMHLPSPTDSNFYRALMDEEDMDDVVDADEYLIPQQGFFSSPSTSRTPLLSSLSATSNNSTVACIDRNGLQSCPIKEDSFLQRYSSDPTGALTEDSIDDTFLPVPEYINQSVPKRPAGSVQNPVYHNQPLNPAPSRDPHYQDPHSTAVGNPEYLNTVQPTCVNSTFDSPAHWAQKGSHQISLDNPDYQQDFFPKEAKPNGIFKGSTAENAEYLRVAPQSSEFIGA
• 1.1 Cells are harvested from flask into cell culture medium and the cell number counted. • 1.2 Cells are diluted with culture medium to the desired density and 40 μL of cell suspension is added into each well of 384-well cell culture plate and the seeding density is 50K cells/well (Ba/F3) or 12.5K cells/well (CUTO14).
• 2.1 Test compounds are dissolved to 10 mM in a DMSO stock solution. 45 μL of stock solution is transferred to a 384 polypropylene plate (pp-plate). […] Mix well on the shaker, seal and wrap in aluminum foil and incubate 1.5 hrs at room temperature in the dark • 3.5 Transfer 18.5 μL mixture to OptiPlate 384, and read using an Envision.
Background: Bead proximity is the source of the signal in Alpha formats.

Experiment [3] deals with EGFR mutant versus EGFR WT. The experiment can be described thus: EGFR mutant potency and selectivity against EGFR WT, compared with the enantiomer. The following applies: relative to its enantiomer (compound 635 in WO 2022/066734).
From the text: as §1

For experiment [4], the target named is T3, EGFR exon 20 NPG Ins D770_N771 (Homo sapiens, UniProt P00533, INS770NPG).
T3 construct: expressed in transfected cells; host or cells: Ba/F3 (murine pro-B cells), retroviral transduction, puromycin selection, IL3 withdrawal
T3 sequence (P00533 with tags, fused parts or gaps INS770NPG): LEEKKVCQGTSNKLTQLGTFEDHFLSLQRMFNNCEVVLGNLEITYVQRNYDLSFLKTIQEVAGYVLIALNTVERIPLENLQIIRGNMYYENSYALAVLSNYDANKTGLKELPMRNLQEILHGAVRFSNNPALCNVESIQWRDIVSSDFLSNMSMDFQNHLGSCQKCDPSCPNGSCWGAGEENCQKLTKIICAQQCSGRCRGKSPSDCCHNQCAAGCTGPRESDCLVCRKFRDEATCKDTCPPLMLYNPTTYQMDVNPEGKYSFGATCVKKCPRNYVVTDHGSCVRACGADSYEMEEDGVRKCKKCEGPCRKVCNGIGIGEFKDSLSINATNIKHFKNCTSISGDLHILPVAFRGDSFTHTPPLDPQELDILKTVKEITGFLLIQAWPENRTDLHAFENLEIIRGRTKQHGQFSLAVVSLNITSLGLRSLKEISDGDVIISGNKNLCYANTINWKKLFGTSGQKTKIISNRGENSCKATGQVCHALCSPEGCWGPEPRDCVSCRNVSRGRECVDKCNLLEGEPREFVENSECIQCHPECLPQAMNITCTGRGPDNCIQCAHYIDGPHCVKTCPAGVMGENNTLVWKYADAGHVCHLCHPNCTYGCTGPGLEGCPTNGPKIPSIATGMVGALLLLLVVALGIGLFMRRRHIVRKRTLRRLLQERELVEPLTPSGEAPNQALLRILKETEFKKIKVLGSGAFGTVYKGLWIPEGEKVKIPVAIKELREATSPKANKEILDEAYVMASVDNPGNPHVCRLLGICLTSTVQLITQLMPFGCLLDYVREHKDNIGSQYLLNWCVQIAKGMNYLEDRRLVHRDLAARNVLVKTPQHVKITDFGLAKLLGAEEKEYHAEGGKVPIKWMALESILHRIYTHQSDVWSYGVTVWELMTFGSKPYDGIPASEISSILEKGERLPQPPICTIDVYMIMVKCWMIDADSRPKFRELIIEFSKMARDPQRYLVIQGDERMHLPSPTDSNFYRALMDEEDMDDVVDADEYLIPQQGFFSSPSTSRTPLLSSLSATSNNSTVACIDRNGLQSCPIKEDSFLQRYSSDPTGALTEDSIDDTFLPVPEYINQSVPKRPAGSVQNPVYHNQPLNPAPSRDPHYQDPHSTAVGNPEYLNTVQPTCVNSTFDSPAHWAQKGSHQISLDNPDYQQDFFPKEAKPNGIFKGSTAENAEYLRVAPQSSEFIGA
The experiment can be described thus: Ba/F3 cell viability (CellTiter-Glo), EGFR exon 20 NPG insertion. Particulars: Ba/F3 cells expressing EGFR exon 20 NPG Ins D770_N771, 72 hours, read-out: BaF3 NPG IC50.
From the text: as §1, §2, §3, §4, §5

In experiment [5] the target is T4, EGFR exon 20 ASV Ins V769_D770 (Homo sapiens, UniProt P00533, INS769ASV).
T4 construct: expressed in transfected cells; host or cells: Ba/F3 (murine pro-B cells), retroviral transduction, puromycin selection, IL3 withdrawal
Nature of the experiment: Ba/F3 cell viability (CellTiter-Glo), EGFR exon 20 ASV insertion. Particulars: Ba/F3 cells expressing EGFR exon 20 ASV Ins V769_D770, 72 hours, read-out: BaF3 ASV IC50.
From the text: as §1, §2, §3, §4, §5

T1 sequence (P00533 with tags, fused parts or gaps INS770SVD): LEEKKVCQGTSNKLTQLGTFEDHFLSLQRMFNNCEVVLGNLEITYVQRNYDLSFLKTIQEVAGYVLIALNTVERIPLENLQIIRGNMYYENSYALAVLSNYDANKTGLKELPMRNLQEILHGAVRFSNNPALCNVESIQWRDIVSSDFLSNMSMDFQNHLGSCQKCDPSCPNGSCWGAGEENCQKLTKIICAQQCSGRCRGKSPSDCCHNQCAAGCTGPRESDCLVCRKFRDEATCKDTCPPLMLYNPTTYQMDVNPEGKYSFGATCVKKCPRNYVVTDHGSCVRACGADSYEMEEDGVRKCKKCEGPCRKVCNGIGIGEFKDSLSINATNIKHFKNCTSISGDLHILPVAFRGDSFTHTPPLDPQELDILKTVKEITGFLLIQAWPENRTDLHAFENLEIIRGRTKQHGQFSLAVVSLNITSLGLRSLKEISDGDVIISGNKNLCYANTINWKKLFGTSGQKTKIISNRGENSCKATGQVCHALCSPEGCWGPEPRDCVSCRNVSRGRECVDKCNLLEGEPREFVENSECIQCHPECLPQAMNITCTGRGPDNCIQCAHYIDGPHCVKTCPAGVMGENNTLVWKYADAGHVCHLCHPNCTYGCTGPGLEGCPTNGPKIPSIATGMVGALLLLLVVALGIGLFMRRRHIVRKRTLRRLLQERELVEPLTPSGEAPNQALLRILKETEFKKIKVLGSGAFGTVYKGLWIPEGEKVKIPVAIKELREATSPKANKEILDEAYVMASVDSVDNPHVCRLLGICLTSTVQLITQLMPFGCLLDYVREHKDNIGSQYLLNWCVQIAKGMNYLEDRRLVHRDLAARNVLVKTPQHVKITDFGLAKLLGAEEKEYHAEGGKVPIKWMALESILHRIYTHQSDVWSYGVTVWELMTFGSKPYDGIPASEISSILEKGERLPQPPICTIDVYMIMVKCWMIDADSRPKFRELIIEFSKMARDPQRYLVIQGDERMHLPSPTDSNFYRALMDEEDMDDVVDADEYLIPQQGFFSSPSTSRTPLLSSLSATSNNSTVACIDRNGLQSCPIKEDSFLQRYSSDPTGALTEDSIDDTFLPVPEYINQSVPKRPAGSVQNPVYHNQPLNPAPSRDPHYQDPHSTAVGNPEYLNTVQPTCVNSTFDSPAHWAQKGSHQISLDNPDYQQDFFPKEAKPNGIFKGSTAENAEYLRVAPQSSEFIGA
T2 sequence (P00533 25-1210): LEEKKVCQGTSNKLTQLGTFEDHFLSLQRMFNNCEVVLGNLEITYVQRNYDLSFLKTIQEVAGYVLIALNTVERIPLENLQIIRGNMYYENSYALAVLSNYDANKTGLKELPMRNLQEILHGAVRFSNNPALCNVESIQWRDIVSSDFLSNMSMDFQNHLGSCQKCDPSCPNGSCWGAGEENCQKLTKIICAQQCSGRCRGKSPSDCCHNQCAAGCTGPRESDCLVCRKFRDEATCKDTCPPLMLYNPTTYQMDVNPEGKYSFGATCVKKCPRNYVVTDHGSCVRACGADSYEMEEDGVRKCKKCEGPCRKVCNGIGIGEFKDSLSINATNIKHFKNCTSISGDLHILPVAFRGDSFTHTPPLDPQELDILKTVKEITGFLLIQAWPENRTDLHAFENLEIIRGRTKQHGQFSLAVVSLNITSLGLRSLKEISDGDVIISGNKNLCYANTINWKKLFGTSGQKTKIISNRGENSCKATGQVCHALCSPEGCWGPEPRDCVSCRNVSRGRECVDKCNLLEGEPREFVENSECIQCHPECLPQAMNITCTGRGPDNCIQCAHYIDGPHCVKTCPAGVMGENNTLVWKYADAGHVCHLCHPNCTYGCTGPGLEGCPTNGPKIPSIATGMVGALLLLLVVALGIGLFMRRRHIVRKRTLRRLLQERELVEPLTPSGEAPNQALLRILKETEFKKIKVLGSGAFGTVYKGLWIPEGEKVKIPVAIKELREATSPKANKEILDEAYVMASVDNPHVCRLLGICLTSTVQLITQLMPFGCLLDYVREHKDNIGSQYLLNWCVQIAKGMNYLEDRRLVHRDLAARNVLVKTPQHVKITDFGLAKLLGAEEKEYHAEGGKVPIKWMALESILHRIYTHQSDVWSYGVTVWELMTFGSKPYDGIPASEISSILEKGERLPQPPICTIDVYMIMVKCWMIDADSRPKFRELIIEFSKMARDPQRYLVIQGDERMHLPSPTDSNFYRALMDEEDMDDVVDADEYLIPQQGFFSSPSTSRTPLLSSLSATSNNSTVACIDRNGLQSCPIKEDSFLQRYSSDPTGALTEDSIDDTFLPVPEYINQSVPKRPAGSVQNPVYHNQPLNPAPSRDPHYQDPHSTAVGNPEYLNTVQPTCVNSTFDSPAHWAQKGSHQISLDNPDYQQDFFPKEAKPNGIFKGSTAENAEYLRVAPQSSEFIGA

What is called pIC50 is −log10 of the IC50, conventionally taken in molar units. In the case of `COc1c(Cl)cccc1Nc1c(-c2ccncc2C#C[C@@]2(C)CCCN2C(=O)/C=C/CN(C)C)[nH]c2cc[nH]c(=O)c12` [(I), 3-[(3-chloro-2-methoxyphenyl)amino]-2-(3-{2-[(2R)-1-[(2E)-4-(dimethylamino)but-2-enoyl]-2-methylpyrrolidin-2-yl]ethynyl}pyridin-4-yl)-1H,5H-pyrrolo[3,2-c]pyridin-4-one], the pIC50 is greater than 7.00 in experiment [1]; no more than 6.00 on EGFR WT; greater than 7.00 in experiment [2]; greater than 7.00 in experiment [4]; greater than 7.00 in experiment [5]. Moreover, the “EGFR mutant potency and selectivity against EGFR WT” value in experiment [3] was “greater than the potency and selectivity exhibited by its enantiomer”.
